From publication PMC10354759, “Preclinical assessment of IRDye800CW‐labeled gastrin‐releasing peptide receptor‐targeting peptide for near infrared‐II imaging of brain malignancies” (Bioengineering & Translational Medicine, 2023)
Where two headings read alike, the source gives them in different places. Each block holds one compound with its values, some of them ahead of it.

Assays:
[1] = cited from earlier work; for brightness (NIR-I) higher than ICG: 100 μM
From the text: Near‐infrared fluorescence imaging technology is widely used for FGS due to its non‐invasive, real‐time, and multi‐dimensional monitoring characteristics. The combination of the reducing photon scattering, light absorption, and tissue autofluorescence provides a clear view deep into the body, capable of extraordinarily high SBR that are only accomplishable when moving from the NIR‐I to NIR‐II region. Because some organic dyes are relatively easy to synthesize, modifiable, and have low biological toxicity, several studies recently explored clinically approved or commercially available NIR‐I cya ...

GRPR of GL261 cell line = target: T1, GRPR of GL261 cell line (Mus musculus, UniProt P21729); experiment: Targeted cell imaging (uptake and RM26 blocking); format: cell-based; conditions: 500 μM RM26 before 100 μM IRDye800-RM26, imaged after 1 h
T1 construct: host or cells: GL261 (stably expressing firefly luciferase)
T1 sequence (P21729 whole entry): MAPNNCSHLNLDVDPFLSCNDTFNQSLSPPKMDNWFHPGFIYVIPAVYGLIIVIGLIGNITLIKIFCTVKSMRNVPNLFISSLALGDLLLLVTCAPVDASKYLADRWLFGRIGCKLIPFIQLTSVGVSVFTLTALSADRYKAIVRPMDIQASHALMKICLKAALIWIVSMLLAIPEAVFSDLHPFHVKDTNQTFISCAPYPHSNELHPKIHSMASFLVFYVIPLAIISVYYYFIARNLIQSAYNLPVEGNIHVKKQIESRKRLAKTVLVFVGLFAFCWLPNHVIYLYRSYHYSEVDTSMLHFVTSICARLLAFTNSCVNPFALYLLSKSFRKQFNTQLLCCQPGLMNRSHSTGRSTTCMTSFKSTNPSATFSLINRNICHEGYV
From the text: Subsequently, we washed the cells with 1 × PBS 3 times and scanned then using fluorescence microscopy (BZ‐X800; KEYENCE, Japan). The NIR emission was collected with an excitation filter (775 ± 50 nm), dichromatic mirror (810 nm), and a barrier filter (845 ± 55 nm).

[2] = test system: glioblastoma (GL261 cells); experiment: Histological colocalization of fluorescence signal and tumor (Manders' coefficients); format: in vivo, C57BL/6 mouse; conditions: 120 mg/kg intraperitoneally, 4 h post-injection
Experimental: We equally analyzed the histological colocalization of the fluorescence signal and cancer cells. […] Frozen sectioning was performed after fixation of the brain specimen in Tissue‐Tek O.C.T. using a cryostat. The fixed tissue was sliced axially at 30 μm thickness and mounted on a slide for immediate fluorescence micro imaging with the BZ‐X800. Multiple slices were performed across the tumor. Subsequently, we stained some slices with H&E according to common standard procedure, and imaged them with BZ‐X800 or Vectra Polaris. […] The mouse was euthanized and prepared for section imaging at 4 h post‐injection. The 5‐ALA emission was collected with an excitation filter (545 ± 25 nm), dichromatic mirror (565 nm), and a barrier filter (605 ± 70 nm). Quantification of the colocalization of tumor on H&E staining, 5‐ALA, and NIR were performed with the JACoP plugin for ImageJ using the Manders' coefficients.[28] Values of these coefficients range from 0 to 1 and express the fraction of intensity in a channel located in pixels where there is above threshold intensity in the other color channel.

Compound: CC1(C)C(/C=C/C2=C(Oc3ccc(S(=O)(=O)O)cc3)C(=C/C=C3/N(CCCCS(=O)(=O)O)c4ccc(S(=O)(=O)[O-])cc4C3(C)C)/CCC2)=[N+](CCCCCC(=O)O)c2ccc(S(=O)(=O)O)cc21 [IRDye800]
brightness (NIR-I) higher than ICG ([1]; FBS): 1.8 fold | quantum yield (QY) ([1]; NIR-I, serum): 12% | brightness (NIR-I) higher than ICG ([1]; PBS): 3.3 fold

Compound: CC1(C)C(/C=C/C=C/C=C/C=C2\N(CCCCS(=O)(=O)O)c3ccc4ccccc4c3C2(C)C)=[N+](CCCCS(=O)(=O)[O-])c2ccc3ccccc3c21 [ICG, indocyanine green]
brightness relative to IRDye800CW ([1]; bovine blood, 0.01 mg/mL): 12.3 times | concentration with maximum fluorescence intensity ([1]; in BSA): 10 to 20 µg/mL

effect of RM26 blocking on IRDye800-RM26 uptake (GRPR of GL261 cell line): reduced
Compound: D‐Phe‐Gln‐Trp‐Ala‐Val‐Gly‐His‐Sta‐Leu‐NH2 [RM26]

Compound: NCC(=O)CCC(=O)O [5-ALA, 5‐aminolevulinic acid]
fraction of glioblastoma on 5-ALA overlapping tumor on H&E (Manders' coefficient) [2]: 99.8% | fraction of tumor on H&E overlapping tumor on 5-ALA (Manders' coefficient) [2]: 63.8%
